From US9139523B2, “5-HT2B receptor antagonists” (Janssen Pharmaceutica, NV, priority 2010, dated 2015)

How the values were obtained:
[1] = biological target: T1, 5HT3A/B (Homo sapiens, UniProt O95264+P46098); test: Competitive radioligand binding, 5HT3A/B; settings: HEK293 membranes, 3H-GR65630 0.5 nM; for IC50: read-out: pIC50 5HT3A/B (converted)
T1 construct: expressed in transfected cells; host or cells: HEK293 (membrane fraction)
T1 sequence (P46098 24-478): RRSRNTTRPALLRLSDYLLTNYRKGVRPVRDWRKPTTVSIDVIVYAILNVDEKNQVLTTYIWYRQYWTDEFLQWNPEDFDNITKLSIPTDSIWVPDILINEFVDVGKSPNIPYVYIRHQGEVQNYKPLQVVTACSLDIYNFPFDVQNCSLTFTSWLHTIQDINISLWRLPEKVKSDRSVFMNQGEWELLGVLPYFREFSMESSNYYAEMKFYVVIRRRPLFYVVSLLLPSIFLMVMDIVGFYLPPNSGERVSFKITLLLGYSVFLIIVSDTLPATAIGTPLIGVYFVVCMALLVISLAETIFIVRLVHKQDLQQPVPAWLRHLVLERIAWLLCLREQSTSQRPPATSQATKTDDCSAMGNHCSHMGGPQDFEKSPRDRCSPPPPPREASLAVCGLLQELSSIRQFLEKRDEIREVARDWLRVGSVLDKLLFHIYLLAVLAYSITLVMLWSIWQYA
T1 sequence (O95264 22-441): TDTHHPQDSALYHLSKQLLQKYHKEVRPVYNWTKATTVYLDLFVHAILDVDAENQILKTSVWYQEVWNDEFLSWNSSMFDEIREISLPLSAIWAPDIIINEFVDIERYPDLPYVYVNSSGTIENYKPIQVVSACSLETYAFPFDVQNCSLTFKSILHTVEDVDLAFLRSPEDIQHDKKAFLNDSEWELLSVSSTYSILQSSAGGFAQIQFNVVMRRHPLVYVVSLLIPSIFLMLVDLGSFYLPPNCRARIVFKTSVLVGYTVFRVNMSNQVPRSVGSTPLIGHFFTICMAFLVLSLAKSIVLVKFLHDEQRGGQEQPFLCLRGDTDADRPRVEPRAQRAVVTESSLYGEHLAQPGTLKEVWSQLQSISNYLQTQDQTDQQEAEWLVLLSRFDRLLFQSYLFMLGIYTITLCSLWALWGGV
Procedure: (§1) Competitive radioligand binding assays were used to determine the affinity of the test compounds for a particular receptor. Various concentrations of the non-labelled test compound were added to the incubation mixture with the membrane fraction, containing the receptor of interest, and a fixed low concentration (nM) of the radioligand. During the incubation the radioligand bound to the receptor, but this was inhibited by the non-labelled test compound in proportion to its binding affinity and concentration.
(§2) Cell lines were established that stably express the human variant of the receptor under investigation after transfection with the appropriate cDNA (Table 1). Transfected cells were grown under standard culture conditions, and membrane fractions were obtained upon centrifugation and homogenisation of the cells. Optimal membrane dilutions for binding studies were determined and aliquots were stored at −70° C. until use. In a 96-well plate format, the appropriate radioligand was added to the membrane preparation containing the receptor under investigation. Compound solutions were prepared in DMSO, and diluted 100-fold into the multiwell plate to a final test concentration of 10^−9 to 10^−5 M. After incubation with the test compound, the unbound radioligand was removed by filtration on G/F filters with a Filtermate 96. Microscint™ was added to the washed filter plates and the radioactivity bound to the receptor was measured by liquid scintillation counting in a TopCount (Packard). To measure the Non-Specific Binding (NSB), a high concentration of the non-radiolabeled ligand was added to wells containing the membrane fraction and the radioligand.
Using in house developed software, a best-fit curve was fitted by a minimum sum of squares method to the plot of % inhibition vs. concentration of the test compound. From this, the pIC50 value (inhibitory concentration causing 50% displacement of specific binding) was determined, as well as an estimate of the slope of the plot (Hill coefficient).

[2] = biological target: T2, hERG (Homo sapiens, UniProt Q12809); test: Competitive radioligand binding, hERG; settings: HEK293 membranes, 3H-dofetilide 5 nM
T2 construct: expressed in transfected cells; host or cells: HEK293 (membrane fraction)
Procedure: as §1, §2
(§3) From this, the pIC50 value (inhibitory concentration causing 50% displacement of specific binding) was determined, as well as an estimate of the slope of the plot (Hill coefficient).

[3] = biological target: T3, Alpha2B (Homo sapiens, UniProt P18089); test: Competitive radioligand binding, Alpha2B; settings: CHO membranes, 3H-rauwolscine 1 nM; for IC50: read-out: pIC50 Alpha2B (converted)
T3 construct: expressed in transfected cells; host or cells: CHO (membrane fraction)
T3 sequence (P18089 1-450): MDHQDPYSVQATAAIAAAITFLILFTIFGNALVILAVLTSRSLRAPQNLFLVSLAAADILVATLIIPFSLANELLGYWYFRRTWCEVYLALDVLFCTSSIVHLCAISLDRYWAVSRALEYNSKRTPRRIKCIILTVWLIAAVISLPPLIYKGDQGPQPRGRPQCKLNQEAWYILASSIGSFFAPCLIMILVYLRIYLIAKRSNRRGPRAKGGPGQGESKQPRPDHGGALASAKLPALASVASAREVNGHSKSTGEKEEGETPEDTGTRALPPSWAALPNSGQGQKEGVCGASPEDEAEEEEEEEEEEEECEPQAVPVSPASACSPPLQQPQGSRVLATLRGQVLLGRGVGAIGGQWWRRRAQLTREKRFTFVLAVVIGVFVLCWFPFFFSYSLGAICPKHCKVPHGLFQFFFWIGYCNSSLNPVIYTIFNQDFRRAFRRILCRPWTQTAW
Procedure: as §1, §2

[4] = biological target: T4, Alpha2C (Homo sapiens, UniProt P18825); test: Competitive radioligand binding, Alpha2C; settings: CHO membranes, 3H-rauwolscine 1 nM; for IC50: read-out: pIC50 Alpha2C (converted)
T4 construct: expressed in transfected cells; host or cells: CHO (membrane fraction)
T4 sequence (P18825 1-462): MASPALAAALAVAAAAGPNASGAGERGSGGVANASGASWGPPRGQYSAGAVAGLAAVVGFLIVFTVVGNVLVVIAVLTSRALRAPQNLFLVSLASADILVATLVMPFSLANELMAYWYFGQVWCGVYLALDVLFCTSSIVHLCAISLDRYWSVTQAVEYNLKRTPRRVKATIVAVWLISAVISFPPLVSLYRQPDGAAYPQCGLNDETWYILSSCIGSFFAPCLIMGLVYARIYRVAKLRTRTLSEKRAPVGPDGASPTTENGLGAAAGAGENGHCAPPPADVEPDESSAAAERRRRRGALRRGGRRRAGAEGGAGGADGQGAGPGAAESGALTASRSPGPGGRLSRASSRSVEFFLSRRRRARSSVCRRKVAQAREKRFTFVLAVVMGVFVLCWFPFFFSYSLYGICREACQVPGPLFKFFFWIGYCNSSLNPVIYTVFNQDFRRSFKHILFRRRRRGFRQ
Procedure: as §1, §2, §3

[5] = biological target: T5, 5HT4B (Homo sapiens, UniProt Q13639); test: Competitive radioligand binding, 5HT4B; settings: HEK293 membranes, 3H-GR113808 0.1 nM; for IC50: read-out: pIC50 5HT4B (converted)
T5 construct: expressed in transfected cells; host or cells: HEK293 (membrane fraction)
Procedure: as §1, §2, §3

[6] = biological target: 5HT2B (Homo sapiens, UniProt P41595); test: Competitive radioligand binding, 5HT2B; design: expressed in transfected cells; host or cells: CHO (membrane fraction); settings: CHO membranes, 3H-5-HT 4 nM; read-out: pIC50 5HT2B (converted)
Procedure: as §1, §2, §3

5HT2B, sequence (P41595 whole entry): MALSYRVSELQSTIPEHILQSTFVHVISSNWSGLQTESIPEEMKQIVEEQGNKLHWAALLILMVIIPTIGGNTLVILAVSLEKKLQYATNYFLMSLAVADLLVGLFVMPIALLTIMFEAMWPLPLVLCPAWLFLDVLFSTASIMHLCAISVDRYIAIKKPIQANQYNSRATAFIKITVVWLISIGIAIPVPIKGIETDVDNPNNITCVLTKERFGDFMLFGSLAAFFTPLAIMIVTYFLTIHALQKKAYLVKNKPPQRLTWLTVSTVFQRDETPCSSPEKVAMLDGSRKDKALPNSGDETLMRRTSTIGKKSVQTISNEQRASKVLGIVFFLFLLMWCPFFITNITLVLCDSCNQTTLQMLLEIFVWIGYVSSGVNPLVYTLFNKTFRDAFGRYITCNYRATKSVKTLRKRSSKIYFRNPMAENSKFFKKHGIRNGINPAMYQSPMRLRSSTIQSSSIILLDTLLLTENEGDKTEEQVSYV
T2 sequence (Q12809 whole entry): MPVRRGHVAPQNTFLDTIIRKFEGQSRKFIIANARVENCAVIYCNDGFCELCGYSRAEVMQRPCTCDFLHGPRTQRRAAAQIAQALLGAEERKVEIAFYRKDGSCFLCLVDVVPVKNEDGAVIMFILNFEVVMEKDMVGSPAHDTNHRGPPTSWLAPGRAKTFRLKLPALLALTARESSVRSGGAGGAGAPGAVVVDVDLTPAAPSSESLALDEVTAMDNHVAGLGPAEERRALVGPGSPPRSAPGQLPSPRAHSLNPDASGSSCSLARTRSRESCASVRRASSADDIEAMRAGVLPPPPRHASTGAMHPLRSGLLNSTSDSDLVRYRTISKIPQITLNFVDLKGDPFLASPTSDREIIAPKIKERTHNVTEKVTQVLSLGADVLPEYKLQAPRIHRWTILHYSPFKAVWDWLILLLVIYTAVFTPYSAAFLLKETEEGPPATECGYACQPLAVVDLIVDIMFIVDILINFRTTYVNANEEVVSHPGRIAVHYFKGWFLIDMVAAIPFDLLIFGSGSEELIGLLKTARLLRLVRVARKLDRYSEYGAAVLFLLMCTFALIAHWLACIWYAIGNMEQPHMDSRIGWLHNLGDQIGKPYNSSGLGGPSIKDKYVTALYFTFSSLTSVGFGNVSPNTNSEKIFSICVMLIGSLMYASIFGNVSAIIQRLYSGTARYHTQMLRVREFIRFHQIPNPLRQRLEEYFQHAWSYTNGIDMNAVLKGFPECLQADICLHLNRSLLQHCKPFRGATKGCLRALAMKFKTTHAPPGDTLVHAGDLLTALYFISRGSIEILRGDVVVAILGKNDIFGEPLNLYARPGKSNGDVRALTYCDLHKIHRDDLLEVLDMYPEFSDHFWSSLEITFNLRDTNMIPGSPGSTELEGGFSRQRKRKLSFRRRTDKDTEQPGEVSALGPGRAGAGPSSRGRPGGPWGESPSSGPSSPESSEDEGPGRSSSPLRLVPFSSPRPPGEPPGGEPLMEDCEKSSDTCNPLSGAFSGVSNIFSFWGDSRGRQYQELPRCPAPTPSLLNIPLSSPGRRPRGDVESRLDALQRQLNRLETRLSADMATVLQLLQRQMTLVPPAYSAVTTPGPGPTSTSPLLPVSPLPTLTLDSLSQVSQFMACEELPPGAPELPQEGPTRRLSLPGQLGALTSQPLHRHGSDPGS
T5 sequence (Q13639 whole entry): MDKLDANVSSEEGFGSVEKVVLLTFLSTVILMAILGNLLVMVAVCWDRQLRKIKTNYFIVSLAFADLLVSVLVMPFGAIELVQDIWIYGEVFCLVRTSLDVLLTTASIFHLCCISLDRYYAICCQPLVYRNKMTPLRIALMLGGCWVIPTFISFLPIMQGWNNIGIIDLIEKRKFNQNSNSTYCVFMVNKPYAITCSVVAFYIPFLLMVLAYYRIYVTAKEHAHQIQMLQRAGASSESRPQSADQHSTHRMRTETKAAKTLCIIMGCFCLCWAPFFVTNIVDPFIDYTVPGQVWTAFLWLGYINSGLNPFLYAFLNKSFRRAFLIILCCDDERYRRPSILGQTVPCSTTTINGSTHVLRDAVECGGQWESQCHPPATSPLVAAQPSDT

Which results are given for `COc1cc(N)c(Cl)cc1C(=O)N[C@@H]1CCN(CCCOc2ccc(F)cc2)C[C@H]1F` (racemic) [(±)-7, trans-4-amino-5-chloro-N-{3-fluoro-1-[3-(4-fluorophenoxy)-propyl]-piperidin-4-yl}-2-methoxybenzamide]?
IC50 [1]: > 10000 nM; IC50 [2]: 234 nM; IC50 [3]: 2510 nM; IC50 [4]: 955 nM; IC50 [5]: 617 nM; IC50 [6]: 107 nM

What does the source list for `COc1cc(N)c(Cl)cc1C(=O)N[C@H]1CCN(CCCOc2ccc(F)cc2)C[C@H]1F` (racemic) [(±)-12, cis-4-amino-5-chloro-N-{3-fluoro-1-[3-(4-fluorophenoxy)-propyl]-piperidin-4-yl}-2-methoxybenzamide]?
IC50 [1]: 6760 nM; IC50 [2]: 316 nM; IC50 [3]: 2510 nM; IC50 [4]: 2090 nM; IC50 [5]: 115 nM; IC50 [6]: 66.1 nM

With `COc1cc(N)c(Cl)cc1C(=O)NC1CCN(CCCOc2ccc(F)cc2)CC1(F)F` (racemic) [(±)-17, 4-amino-5-chloro-N-{3,3-difluoro-1-[3-(4-fluorophenoxy)-propyl]-piperidin-4-yl}-2-methoxybenzamide] as the compound, how does the IC50 [1] read?
Its IC50 is over 10000 nM.

And the IC50 [2]?
The IC50 was 7590 nM.

And the IC50 [3]?
The IC50 was over 10000 nM.

What about the IC50 [4] of the same compound?
The IC50 was over 10000 nM.

What about the IC50 [5] of the same compound?
Its IC50 is over 10000 nM.

What about the IC50 [6] of the same compound?
Its IC50 is 13.8 nM.

Which results are given for `COc1cc(N)c(Cl)cc1C(=O)N[C@@H]1CCN(CCCOc2ccc(F)cc2)C[C@H]1F` (single isomer, unassigned) [(+)-7, trans-4-amino-5-chloro-N-{3-fluoro-1-[3-(4-fluorophenoxy)-propyl]-piperidin-4-yl}-2-methoxybenzamide]?
IC50 [1]: > 10000 nM; IC50 [2]: 288 nM; IC50 [3]: 2630 nM; IC50 [4]: > 10000 nM; IC50 [5]: 871 nM; IC50 [6]: 129 nM

`COc1cc(N)c(Cl)cc1C(=O)N[C@H]1CCN(CCCOc2ccc(F)cc2)C[C@H]1F` (single isomer, unassigned) [(+)-12, cis-4-amino-5-chloro-N-{3-fluoro-1-[3-(4-fluorophenoxy)-propyl]-piperidin-4-yl}-2-methoxybenzamide] was tested. Which IC50 [1] did it give?
The IC50 was over 10000 nM.

What about the IC50 [2] of the same compound?
The IC50 was 178 nM.

What about the IC50 [3] of the same compound?
Its IC50 is 3390 nM.

And the IC50 [4]?
The IC50 was 1950 nM.

And the IC50 [5]?
Its IC50 is 126 nM.

What about the IC50 [6] of the same compound?
The IC50 was 148 nM.

Which results are given for `COc1cc(N)c(Cl)cc1C(=O)N[C@@H]1CCN(CCCOc2ccc(F)cc2)C[C@H]1F` (single isomer, unassigned) [(−)-7, trans-4-amino-5-chloro-N-{3-fluoro-1-[3-(4-fluorophenoxy)-propyl]-piperidin-4-yl}-2-methoxybenzamide]?
pIC50 5HT3A/B [1]: <5; IC50 [2]: 316 nM; IC50 [3]: 6030 nM; IC50 [4]: 1170 nM; IC50 [5]: 437 nM; IC50 [6]: 251 nM

How did the IC50 [1] turn out when `COc1cc(N)c(Cl)cc1C(=O)N[C@H]1CCN(CCCOc2ccc(F)cc2)C[C@H]1F` (single isomer, unassigned) [(−)-12, cis-4-amino-5-chloro-N-{3-fluoro-1-[3-(4-fluorophenoxy)-propyl]-piperidin-4-yl}-2-methoxybenzamide] was run?
The IC50 was 2750 nM.

What about the IC50 [2] of the same compound?
The IC50 was 191 nM.

And the IC50 [3]?
Its IC50 is 5250 nM.

And the IC50 [4]?
The IC50 was 5890 nM.

And the IC50 [5]?
The IC50 was 537 nM.

And the IC50 [6]?
Its IC50 is 72.4 nM.

`COc1cc(N)c(Cl)cc1C(=O)NC1CCN(CCCOc2ccc(F)cc2)CC1(F)F` (single isomer, unassigned) [Compound (−)-17, 4-amino-5-chloro-N-{3,3-difluoro-1-[3-(4-fluorophenoxy)-propyl]-piperidin-4-yl}-2-methoxybenzamide] was tested. Which “pIC50 5HT3A/B” value [1] did it give?
Its value is under 5.

What about the “pIC50 hERG” value [2] of the same compound?
The value was under 5.

What about the “pIC50 Alpha2B” value [3] of the same compound?
Its value is under 5.

And the “pIC50 Alpha2C” value [4]?
The value was under 5.

What about the “pIC50 5HT4B” value [5] of the same compound?
Its value is under 5.

What about the IC50 [6] of the same compound?
Its IC50 is 7.24 nM.

`COc1cc(N)c(Cl)cc1C(=O)NC1CCN(CCCOc2ccc(F)cc2)CC1(F)F` (single isomer, unassigned; (+)) [(+)-17, 4-amino-5-chloro-N-{3,3-difluoro-1-[3-(4-fluorophenoxy)-propyl]-piperidin-4-yl}-2-methoxybenzamide] was tested. Which IC50 [1] did it give?
The IC50 was over 10000 nM.

What about the IC50 [2] of the same compound?
Its IC50 is over 10000 nM.

What about the IC50 [3] of the same compound?
Its IC50 is over 10000 nM.

What about the IC50 [4] of the same compound?
The IC50 was over 10000 nM.

And the IC50 [5]?
Its IC50 is over 10000 nM.

And the IC50 [6]?
The IC50 was 51.3 nM.
